Where a name gives a salt, the structure may show the parent alone.
Legend:
[1] = system: acetic acid-induced writhing in ddy mice; assay: animal or person; assay type: in vivo, 5 week old ddy mice; settings: for ED50: Mus musculus, sc, s.c. 15 minutes before acetic acid, read-out: ED50; for analgesic activity: s.c., in words
Procedure: 5 week old ddy mice were used in this test. After intraperitoneal administration of 0.1 ml of 0.6% aqueous acetic acid per 10 g of body weight, the number of writhing reactions that occurred in 10 minutes starting 10 minutes after administration was evaluated for the indicator. The test drug was administered subcutaneously into the backs of the animals 15 minutes before administration of acetic acid.

[2] = system: cultured nerve cells (cerebral cortex); settings: 10 mM glutamic acid, 24 hours
[3] = system: cultured nerve cells (cerebral cortex); assay: cells; settings: Rattus norvegicus, Cerebral cortex neuron, 24 h, read-out: ED50 (protection against glutamic acid toxicity)
[4] = system: extracted mouse vas deferens preparation; assay: Opioid activity test using an extracted mouse vas deferens preparation (suppression of electrically induced contractions); design: species or system male ddy mouse; settings: electrical stimulus 0.1 Hz, 37° C.
Summary of the method: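 Male ddY mouse vas deferens in Krebs-Henseleit at 37° C, 5% CO2/95% O2, field-stimulated at 0.1 Hz, 5.0 ms; isometric contractions recorded. After adding naloxone, NTI or norBNI, test compound was added cumulatively after ~20 min; Ke derived from the difference in agonist efficacies.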

μ receptor = target: T1, μ receptor (Mus musculus, UniProt P42866); assay: Opioid activity test using an extracted mouse vas deferens preparation, Ke with naloxone; design: species or system male ddy mouse; settings: naloxone added
T1 construct: naloxone as mu antagonist (printed 'agonist')
Procedure: A male ddy mouse was used in this test. The vas deferens extracted from the animal was suspended in a Magnus tube filled with Krebes-Henseleit solution (NaCl 118 mM; KCl 4.7 mM; CaCl2 2.5 mM; KH2 PO4 1.1 mM; NaHCO3 25 mM; Glucose 11 mM) warmed to 37° C. and ventilated with 5% carbon dioxide and 95% oxygen. Electrical stimulus was performed at 0.1 Hz for 5.0 ms by means of ring-shaped platinum electrodes located above and below. Tissue contractions were recorded on a polygraph using an isometric transducer.
After adequately washing with nutrient solution and the contraction reaction stabilized, the μ agonist, naloxone, the δ agonist, NTI, or the κ agonist, norBNI, was added after which the test compound was again cumulatively added after roughly 20 minutes. The Ke value was calculated using the following calculation formula from the difference in the efficacies of both agonists.
Ke=[Conc. of added agonist]/(IC50 ratio-1)
IC50 ratio=IC50 in the presence of agonist/IC50 in the absence of agonist

δ receptor = target: T2, δ receptor (Mus musculus, UniProt P32300); design: species or system male ddy mouse; settings: mouse vas deferens, δ, NTI added
T2 construct: The vas deferens extracted from the animal was suspended in a Magnus tube; from tissue; host or cells: mouse (male ddy) vas deferens

κ receptor = target: T3, κ receptor (Mus musculus, UniProt P33534); assay: Opioid activity test using an extracted mouse vas deferens preparation, Ke with norBNI; design: species or system male ddy mouse; settings: for Ke, norBNI: κ, norBNI added
T3 construct: from tissue; host or cells: mouse (male ddy) vas deferens

[5] = Diuretic action (urine output for 5 hours after physiological saline loading in rats); assay type: in vivo, male Wistar rats; settings: Rattus norvegicus, sc, 5 hours after saline 20 ml/kg p.o.; for ED (200% urine output): dose giving urine output of 200 (non-dosed group = 100); for ED (500% urine output): dose giving urine output of 500 (non-dosed group = 100)
Summary of the method: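 Male Wistar rats (7-8 weeks), water withheld 1 h, bladder emptied, drug given subcutaneously; 30 min later 20 ml/kg saline orally. Urine collected 5 h after saline loading in metabolic cages; ED200 and ED500 are doses giving urine output of 200 and 500 relative to non-dosed group at 100.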

T3 sequence (P33534 whole entry): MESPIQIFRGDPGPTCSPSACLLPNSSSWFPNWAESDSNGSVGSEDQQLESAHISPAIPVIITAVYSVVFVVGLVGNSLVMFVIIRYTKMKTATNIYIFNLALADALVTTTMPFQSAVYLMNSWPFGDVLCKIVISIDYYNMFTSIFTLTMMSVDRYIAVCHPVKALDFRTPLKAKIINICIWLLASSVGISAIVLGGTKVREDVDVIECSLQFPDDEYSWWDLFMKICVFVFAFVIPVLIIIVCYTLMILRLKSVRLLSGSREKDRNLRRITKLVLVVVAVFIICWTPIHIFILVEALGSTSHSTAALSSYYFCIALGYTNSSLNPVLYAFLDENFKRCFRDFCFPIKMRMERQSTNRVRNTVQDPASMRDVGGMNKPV
T1 sequence (P42866 whole entry): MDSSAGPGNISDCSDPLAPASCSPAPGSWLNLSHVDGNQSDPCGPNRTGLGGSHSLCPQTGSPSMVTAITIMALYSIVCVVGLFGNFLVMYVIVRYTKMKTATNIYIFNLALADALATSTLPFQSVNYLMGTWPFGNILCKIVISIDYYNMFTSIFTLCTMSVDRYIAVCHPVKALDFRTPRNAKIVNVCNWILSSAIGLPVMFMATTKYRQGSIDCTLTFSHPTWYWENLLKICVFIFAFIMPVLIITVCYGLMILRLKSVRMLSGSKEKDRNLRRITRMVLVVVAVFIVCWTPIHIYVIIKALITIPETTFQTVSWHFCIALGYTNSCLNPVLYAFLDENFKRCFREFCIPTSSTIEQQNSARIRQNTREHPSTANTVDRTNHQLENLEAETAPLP
T2 sequence (P32300 whole entry): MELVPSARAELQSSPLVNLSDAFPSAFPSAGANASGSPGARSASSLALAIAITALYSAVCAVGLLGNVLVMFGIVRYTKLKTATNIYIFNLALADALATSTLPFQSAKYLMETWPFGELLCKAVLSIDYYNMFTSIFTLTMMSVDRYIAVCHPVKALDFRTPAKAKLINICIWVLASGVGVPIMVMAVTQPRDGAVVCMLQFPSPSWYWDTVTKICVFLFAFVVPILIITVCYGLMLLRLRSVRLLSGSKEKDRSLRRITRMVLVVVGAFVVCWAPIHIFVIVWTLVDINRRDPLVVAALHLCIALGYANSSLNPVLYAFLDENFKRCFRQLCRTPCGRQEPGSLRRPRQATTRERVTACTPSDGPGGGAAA

| SMILES | ED50 [1] | Protective action against cytotoxicity caused by glutamic acid (in words) [2] | EC50 [3] | further results |
| --- | --- | --- | --- | --- |
| CN(C(=O)c1ccccc1)[C@H]1CC[C@@]2(O)[C@H]3Cc4ccc(O)c5c4[C@@]2(CCN3CC2CC2)[C@H]1O5 [Compound 34, 17-cyclopropylmethyl-3,14β-dihydroxy-4,5α-epoxy-6α-(N-methylbenzamido)morphinan.cndot.hydrochloride] | 0.21 mg/kg | clearly demonstrated action that protects nerve cells from cytotoxicity caused by glutamic acid | 0.18 µM |  |
| CN(CCc1ccc(Cl)c(Cl)c1)[C@H]1CC[C@@]2(O)[C@H]3Cc4ccc(O)c5c4[C@@]2(CCN3CC2CC2)[C@H]1O5 [Compound 135, 17-Cyclopropylmethyl-3,14β-dihydroxy-4,5α-epoxy-6α-[N-methyl-N-2-(3,4-dichlorophenyl)ethylamino]morphinan.cndot.1.8 hydrochloride] |  | clearly demonstrated action that protects nerve cells from cytotoxicity caused by glutamic acid | 0.29 µM |  |
| CO[C@@H](C(=O)N(C)[C@H]1CC[C@@]2(O)[C@H]3Cc4ccc(O)c5c4[C@@]2(CCN3CC2CC2)[C@H]1O5)c1ccccc1 [Compound 30, 17-cyclopropylmethyl-3,14β-dihydroxy-4,5α-epoxy-6α-[(R)-N-methylmethoxyphenylacetamido]morphinan.cndot.hydrochloride] |  | clearly demonstrated action that protects nerve cells from cytotoxicity caused by glutamic acid | 7.95 µM |  |
| CN(C(=O)Cc1ccccc1)[C@H]1CC[C@@]2(O)[C@H]3Cc4ccc(O)c5c4[C@@]2(CCN3CC2CC2)[C@H]1O5 [Compound 23, 17-cyclopropylmethyl-3,14β-dihydroxy-4,5α-epoxy-6α-(N-methylphenylacetamido)morphinan.cndot.hydrochloride] | 0.67 mg/kg | clearly demonstrated action that protects nerve cells from cytotoxicity caused by glutamic acid | 1.61 µM |  |
| CN(C(=O)Cc1cccc(C(F)(F)F)c1)[C@@H]1CC[C@@]2(O)[C@H]3Cc4ccc(O)c5c4[C@@]2(CCN3CC2CC2)[C@H]1O5 [Compound 116, 17-cyclopropylmethyl-3,14β-dihydroxy-4,5α-epoxy-6β-(N-methyl-3-trifluoromethylphenylacetamido)morphinan.cndot.hydrochloride] |  | clearly demonstrated action that protects nerve cells from cytotoxicity caused by glutamic acid | 2.37 µM |  |
| O=C(Cc1ccc(Cl)c(Cl)c1)N[C@H]1CC[C@@]2(O)[C@H]3Cc4ccc(O)c5c4[C@@]2(CCN3CC2CC2)[C@H]1O5 [Compound 52, 17-cyclopropylmethyl-4,5α-epoxy-3,14β-dihydroxy-6α-(3,4-dichlorophenylacetoamido)morphinan.cndot.hydrochloride] |  | clearly demonstrated action that protects nerve cells from cytotoxicity caused by glutamic acid | 1.71 µM |  |
| CN(C(=O)C1CCCCC1)[C@H]1CC[C@@]2(O)[C@H]3Cc4ccc(O)c5c4[C@@]2(CCN3CC2CC2)[C@H]1O5 [Compound 33, 17-cyclopropylmethyl-3,14β-dihydroxy-4,5α-epoxy-6α-(N-methylcyclohexylcarboxyamido)morphinan.cndot.hydrochloride] | 0.08 mg/kg | clearly demonstrated action that protects nerve cells from cytotoxicity caused by glutamic acid | 3.53 µM |  |
| CN(C(=O)COc1ccccc1)[C@@H]1CC[C@@]2(O)[C@H]3Cc4ccc(O)c5c4[C@@]2(CCN3CC2CC2)[C@H]1O5 [Compound 58, 17-cyclopropylmethyl-3,14β-dihydroxy-4,5α-epoxy-6β-(N-methylphenoxyacetamido)morphinan.cndot.tartrate] | 0.19 mg/kg | clearly demonstrated action that protects nerve cells from cytotoxicity caused by glutamic acid | 16.7 µM |  |
| CN(CCc1ccc(Cl)c(Cl)c1)[C@@H]1CC[C@@]2(O)[C@H]3Cc4ccc(O)c5c4[C@@]2(CCN3CC2CC2)[C@H]1O5 [Compound 136, 17-Cyclopropylmethyl-3,14β-dihydroxy-4,5α-epoxy-6β-[N-methyl-N-2-(3,4-dichlorophenyl)ethylamino]morphinan.cndot.1.9 hydrochloride] |  | clearly demonstrated action that protects nerve cells from cytotoxicity caused by glutamic acid | 0.64 µM |  |
| C[C@H](C(=O)N(C)[C@H]1CC[C@@]2(O)[C@H]3Cc4ccc(O)c5c4[C@@]2(CCN3CC2CC2)[C@H]1O5)c1ccccc1 [Compound 32, 17-cyclopropylmethyl-4,5α-epoxy-3,14β-dihydroxy-6α-[(S)-N-methyl-2-phenylpropionamido]morphinan.cndot.tartrate] | 0.29 mg/kg | clearly demonstrated action that protects nerve cells from cytotoxicity caused by glutamic acid | 2.14 µM |  |
| CN(Cc1ccccc1)[C@@H]1CC[C@@]2(O)[C@H]3Cc4ccc(O)c5c4[C@@]2(CCN3CC2CC2)[C@H]1O5 [Compound 8, 6β-(N-Benzyl)methylamino-17-cyclopropylmethyl-4,5α-epoxy-3,14β-dihydroxymorphinan] |  | clearly demonstrated action that protects nerve cells from cytotoxicity caused by glutamic acid | 5.75 µM |  |
| CN(C(=O)Cc1ccc2ccccc2c1)[C@@H]1CC[C@@]2(O)[C@H]3Cc4ccc(O)c5c4[C@@]2(CCN3CC2CC2)[C@H]1O5 [Compound 112, 17-cyclopropylmethyl-3,14β-dihydroxy-4,5α-epoxy-6β-(N-methyl-2-naphthylacetamido)morphinan.cndot.hydrochloride] |  | clearly demonstrated action that protects nerve cells from cytotoxicity caused by glutamic acid | 4.24 µM |  |
| CN(C(=O)/C=C/c1cccc(F)c1)[C@H]1CC[C@@]2(O)[C@H]3Cc4ccc(O)c5c4[C@@]2(CCN3CC2CC2)[C@H]1O5 [Compound 96, 17-cyclopropylmethyl-3,14β-dihydroxy-4,5α-epoxy-6α-(N-methyl-3-fluorocinnamamido)morphinan.cndot.tartrate] | 0.00086 mg/kg |  |  | IC50 [4]: 0.000346 µM; Ke, Naloxone (μ receptor): 32.5 nM; Ke, NTI (δ receptor): 1.61 nM; Ke, norBNI (κ receptor): 4.21 nM; analgesic activity [1]: particularly strong analgesic activity; ED (200% urine output) [5]: 0.0013 mg/kg; ED (500% urine output) [5]: 0.0549 mg/kg |
| COc1cccc(/C=C/C(=O)N(C)[C@@H]2CC[C@@]3(O)[C@H]4Cc5ccc(O)c6c5[C@@]3(CCN4CC3CC3)[C@H]2O6)c1 [Compound 63, 17-cyclopropylmethyl-3,14β-dihydroxy-4,5α-epoxy-6β-(N-methyl-3-methoxycinnamamido)morphinan.cndot.tartrate] | 0.0011 mg/kg |  |  | IC50 [4]: 0.000746 µM; Ke, Naloxone (μ receptor): 60.9 nM; Ke, NTI (δ receptor): 96.9 nM; receptor selectivity of agonist (κ) (κ receptor; in words): selective agonists for κ receptors; Ke, norBNI (κ receptor): 1.60 nM; analgesic activity [1]: particularly strong analgesic activity; ED (200% urine output) [5]: 0.0038 mg/kg; ED (500% urine output) [5]: 0.309 mg/kg |

From patent US6177438A, “Morphinan derivatives and pharmaceutical use thereof” (priority 1993, dated 2001)
